From ChEMBL document CHEMBL1811769, “Bioactive 11,20-epoxy-3,5(16)-diene briarane diterpenoids from the South China Sea gorgonian Dichotella gemmacea” (J Nat Prod, 2011)
Active and inactive are the calls of the source. The calls are words filed in the database; no cut-off is given here.

Legend:
[1] = system: Priestia megaterium; assay: Antibacterial activity against Bacillus megaterium at 0.05 mg by agar diffusion method; format: functional; details: for zone of inhibition at 50 µg/disc: read-out: DIZ
[2] = system: Zymoseptoria tritici; assay: Antifungal activity against Septoria tritici at 0.05 mg by agar diffusion method; format: functional; details: for zone of inhibition at 50 µg/disc: read-out: DIZ
[3] = system: Escherichia coli; assay: Antibacterial activity against Escherichia coli at 0.05 mg by agar diffusion method; format: functional; details: for zone of inhibition at 50 µg/disc: read-out: DIZ
[4] = system: Microbotryum violaceum; assay: Antifungal activity against Microbotryum violaceum at 0.05 mg by agar diffusion method; format: functional; details: for zone of inhibition at 50 µg/disc: read-out: DIZ
[5] = system: A549; assay: Growth inhibition of human A549 cells by MTT assay; format: functional, cell-based
[6] = system: MG-63; assay: Growth inhibition of human MG63 cells by MTT assay; format: functional, cell-based

With C=C1/C=C/[C@H](OC(C)=O)[C@@]2(C)[C@@H](OC(C)=O)CC[C@]3(CO3)[C@@H]2[C@H](OC(C)=O)[C@]2(O)[C@@H](C)C(=O)O[C@H]2[C@H]1Cl the “diameter of the inhibition zone (DIZ)” value [1] was “inactive”, the “diameter of the inhibition zone (DIZ)” value [2] was “inactive” and the “diameter of the inhibition zone (DIZ)” value [3] was “inactive”. The “diameter of the inhibition zone (DIZ)” value [4] was “inactive”.

With C=C1/C=C/[C@H](OC(C)=O)[C@@]2(C)[C@@H](OC(C)=O)[C@@H](OC(=O)CC(C)C)[C@@H](OC(C)=O)[C@]3(CO3)[C@@H]2[C@H](OC(C)=O)[C@]2(O)[C@@H](C)C(=O)O[C@H]2[C@H]1Cl the “diameter of the inhibition zone (DIZ)” value [1] was “inactive”, the “diameter of the inhibition zone (DIZ)” value [2] was “inactive” and the “diameter of the inhibition zone (DIZ)” value [3] was “inactive”. For the same compound, the “diameter of the inhibition zone (DIZ)” value [4] was “inactive”.

Compound COc1cccc2c1C(=O)c1c(O)c3c(c(O)c1C2=O)C[C@@](O)(C(=O)CO)C[C@@H]3O[C@H]1C[C@H](N)[C@H](O)[C@H](C)O1 [DOXORUBICIN] has an IC50 [5] of 2.8 µM and an IC50 [6] of 2.8 µM.

C=C1/C=C/[C@H](OC(C)=O)[C@@]2(C)[C@@H](OC(C)=O)[C@@H](OC(C)=O)[C@@H](OC(C)=O)[C@]3(CO3)[C@@H]2[C@H](OC(C)=O)[C@]2(O)[C@@H](C)C(=O)O[C@H]2[C@H]1Cl [GEMMACOLIDE G] was tested, and the IC50 [5] was 8.4 µM, the IC50 [6] was 38.4 µM and the “diameter of the inhibition zone (DIZ)” value [1] was “inactive”. For the same compound, the “diameter of the inhibition zone (DIZ)” value [2] was “inactive”, the “diameter of the inhibition zone (DIZ)” value [3] was “inactive” and the “diameter of the inhibition zone (DIZ)” value [4] was “inactive”.

With C=C1/C=C/[C@H](OC(C)=O)[C@@]2(C)[C@@H](OC(C)=O)C[C@@H](OC(C)=O)[C@]3(CO3)[C@@H]2[C@H](OC(C)=O)[C@]2(O)[C@@H](C)C(=O)O[C@H]2[C@H]1Cl [GEMMACOLIDE H] the IC50 [5] was 47.3 µM, the IC50 [6] was 54 µM and the “diameter of the inhibition zone (DIZ)” value [1] was “inactive”. The “diameter of the inhibition zone (DIZ)” value [2] was “inactive”, the “diameter of the inhibition zone (DIZ)” value [3] was “inactive” and the “diameter of the inhibition zone (DIZ)” value [4] was “inactive”.

For C=C1/C=C/[C@H](OC(C)=O)[C@@]2(C)[C@@H](OC(C)=O)C[C@@H](OC(=O)CC(C)C)[C@]3(CO3)[C@@H]2[C@H](OC(C)=O)[C@]2(O)[C@@H](C)C(=O)O[C@H]2[C@H]1Cl [GEMMACOLIDE I], the IC50 [5] was 20.6 µM, the IC50 [6] was 25 µM and the “diameter of the inhibition zone (DIZ)” value [1] was “inactive”. The “diameter of the inhibition zone (DIZ)” value [2] was “inactive”, the “diameter of the inhibition zone (DIZ)” value [3] was “inactive” and the “diameter of the inhibition zone (DIZ)” value [4] was “inactive”.

C=C1/C=C/[C@H](OC(C)=O)[C@@]2(C)[C@@H](OC(C)=O)[C@@H](OC(C)=O)[C@@H](OC(=O)CC(C)C)[C@]3(CO3)[C@@H]2[C@H](OC(C)=O)[C@]2(O)[C@@H](C)C(=O)O[C@H]2[C@H]1Cl [GEMMACOLIDE J] gave an IC50 [5] of under 1.4 µM, an IC50 [6] of 79.8 µM and a zone of inhibition at 50 µg/disc [1] of 16 mm.

In the case of CC(=O)N1CCN(c2ccc(OCC3COC(Cn4ccnc4)(c4ccc(Cl)cc4Cl)O3)cc2)CC1 (stereo not drawn) [KETOCONAZOLE], the zone of inhibition at 50 µg/disc [1] is reported as 18 mm, the zone of inhibition at 50 µg/disc [2] is reported as 25 mm and the zone of inhibition at 50 µg/disc [3] is reported as 18 mm. For the same compound, the zone of inhibition at 50 µg/disc [4] was 30 mm.

CC1(C)S[C@@H]2[C@H](NC(=O)Cc3ccccc3)C(=O)N2[C@H]1C(=O)O [PENICILLIN G] was tested, and the zone of inhibition at 50 µg/disc [1] was 26 mm, the zone of inhibition at 50 µg/disc [2] was 12 mm and the zone of inhibition at 50 µg/disc [3] was 8 mm. The zone of inhibition at 50 µg/disc [4] was 14 mm.

Compound CN[C@@H]1[C@H](O[C@H]2[C@H](O[C@H]3[C@H](O)[C@@H](O)[C@H](N=C(N)N)[C@@H](O)[C@@H]3N=C(N)N)O[C@@H](C)[C@]2(O)C=O)O[C@@H](CO)[C@H](O)[C@H]1O [STREPTOMYCIN] has a zone of inhibition at 50 µg/disc [1] of 11 mm, a zone of inhibition at 50 µg/disc [2] of 11 mm and a zone of inhibition at 50 µg/disc [3] of 18 mm. For the same compound, the zone of inhibition at 50 µg/disc [4] was 16 mm.
